Results taken from US8492559B2, “Substituted indole compounds” (Gruenenthal GmbH, priority 2009, dated 2013).

Target: T1, B1R receptor of the rat (rB1R) (Rattus norvegicus, UniProt P97583)
T1 construct: expressed in transfected cells; host or cells: CHO K1 cells
T1 sequence (P97583 1-337): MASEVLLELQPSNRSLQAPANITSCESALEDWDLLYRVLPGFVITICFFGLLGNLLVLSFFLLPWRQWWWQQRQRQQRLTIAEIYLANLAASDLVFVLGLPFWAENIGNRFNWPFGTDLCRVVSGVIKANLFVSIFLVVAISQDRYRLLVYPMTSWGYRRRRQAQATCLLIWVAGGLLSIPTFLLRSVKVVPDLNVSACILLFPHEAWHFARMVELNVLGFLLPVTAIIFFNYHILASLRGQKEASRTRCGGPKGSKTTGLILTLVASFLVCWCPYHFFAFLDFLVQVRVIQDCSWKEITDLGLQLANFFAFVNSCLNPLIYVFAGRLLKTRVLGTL
Experiment: Functional investigation on the bradykinin 1 receptor (B1R), FLIPR Ca2+ assay, rB1R cells
Type: cell-based
Details: CHO K1 cells with rat B1R, agonist Des-Arg9 bradykinin, % of maximum achievable inhibition; for B1R antagonism, rat [10 μM] % inhibition: 10 μM test substance; for inhibition at 10 µM: CHO-K1, 10 μM test substance, read-out: B1R antagonism, rat [10 μM] % inhibition
Method in brief: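 Ca2+ influx is measured as peak Fluo-4 fluorescence in a FLIPR protocol with two substance additions, following Lys-Des-[MUT] bradykinin (0.5 nM) or Des-[MUT] bradykinin (100 nM) challenge. Varying antagonist concentrations give % inhibition relative to maximum achievable and an IC50. Determinations in duplicate or triplicate, repeated independently (N>=2).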

B1R antagonism, rat [10 μM] % inhibition | inhibition at 10 µM | Structure (SMILES)
78% |  | COc1cc(C)c(S(=O)(=O)Nc2ccc3ccn(CC(=O)N4CCC(CCN5CCCC5)CC4)c3c2)c(C)c1 [Compound G-01, 4-Methoxy-2,6-dimethyl-N-[1-[2-oxo-2-[4-(2-pyrrolidin-1-yl-ethyl)-piperidin-1-yl]-ethyl]-1H-indol-6-yl]-benzenesulfonic acid amide]
 | 100% | COc1cc(C)c(S(=O)(=O)Nc2cccc3ccn(CC(=O)N4CCC(CCN5CCCC5)CC4)c23)c(C)c1 [Compound G-02, 4-Methoxy-2,6-dimethyl-N-[1-[2-oxo-2-[4-(2-pyrrolidin-1-yl-ethyl)-piperidin-1-yl]-ethyl]-1H-indol-7-yl]-benzenesulfonic acid amide]
 | 62% | COc1cc(C)c(S(=O)(=O)Nc2cccc3ccn(CC(=O)N4CCC5(CC4)C(=O)NCN5c4ccccc4)c23)c(C)c1 [Compound G-04, 4-Methoxy-2,6-dimethyl-N-[1-[2-oxo-2-(1-oxo-4-phenyl-2,4,8-triazaspiro[4.5]decan-8-yl)-ethyl]-1H-indol-7-yl]-benzenesulfonic acid amide]
96% |  | COc1cc(C)c(S(=O)(=O)Nc2cccc3ccn(CC(=O)N4CCC5(CC4)CCN(c4ccncc4)CC5)c23)c(C)c1 [Compound G-05, 4-Methoxy-2,6-dimethyl-N-[1-[2-oxo-2-(9-pyridin-4-yl-3,9-diazaspiro[5.5]undecan-3-yl)-ethyl]-1H-indol-7-yl]-benzenesulfonic acid amide]
 | 70% | COc1cc(C)c(S(=O)(=O)Nc2cccc3ccn(CC(=O)N4CCC(OCCN5CCCC5)(c5cccnc5)CC4)c23)c(C)c1 [Compound G-06, 4-Methoxy-2,6-dimethyl-N-[1-[2-oxo-2-[4-pyridin-3-yl-4-(2-pyrrolidin-1-yl-ethoxy)-piperidin-1-yl]-ethyl]-1H-indol-7-yl]-benzenesulfonic acid amide]
 | 100% | O=C(CCn1ccc2ccc(N3Cc4cccc(Cl)c4C3=O)cc21)N1CCC2(CC1)CCN(c1ccncc1)CC2 [Compound G-07, 7-Chloro-2-[1-[3-oxo-3-(9-pyridin-4-yl-3,9-diazaspiro[5.5]undecan-3-yl)-propyl]-1H-indol-6-yl]-2,3-dihydro-isoindol-1-one]
 | 97% | O=C(Cn1ccc2ccc(N3Cc4cccc(Cl)c4C3=O)cc21)N1CCC2(CC1)CCN(c1ccncc1)CC2 [Compound G-08, 7-Chloro-2-[1-[2-oxo-2-(9-pyridin-4-yl-3,9-diazaspiro[5.5]undecan-3-yl)-ethyl]-1H-indol-6-yl]-2,3-dihydro-isoindol-1-one]
76% |  | O=C(CCn1ccc2cccc(N3Cc4cccc(Cl)c4C3=O)c21)N1CCC2(CC1)CCN(c1ccncc1)CC2 [Compound G-10, 7-Chloro-2-(1-(3-oxo-3-(9-(pyridin-4-yl)-3,9-diazaspiro[5.5]undecan-3-yl)propyl)-1H-indol-7-yl)isoindolin-1-one]
 | -21% | O=C(Cn1ccc2cccc(N3Cc4cccc(Cl)c4C3=O)c21)N1CCC2(CC1)CCN(c1ccncc1)CC2 [Compound G-11, 7-Chloro-2-(1-(2-oxo-2-(9-(pyridin-4-yl)-3,9-diazaspiro[5.5]undecan-3-yl)ethyl)-1H-indol-7-yl)isoindolin-1-one]
 | 92% | O=C(Cn1ccc2ccc(N3Cc4cccc(Cl)c4C3=O)cc21)N1CCC2(CCN(c3ccncc3)CC2)C1 [Compound G-12, 7-Chloro-2-(1-(2-oxo-2-(8-(pyridin-4-yl)-2,8-diazaspiro[4.5]decan-2-yl)ethyl)-1H-indol-6-yl)isoindolin-1-one]
 | 96% | COc1cc(C)c(S(=O)(=O)Nc2cccc3ccn(CC(=O)N4CCC5(CC4)CC(c4ccncc4)=NO5)c23)c(C)c1 [Compound G-13, 4-Methoxy-2,6-dimethyl-N-(1-(2-oxo-2-(3-(pyridin-4-yl)-1-oxa-2,8-diazaspiro[4.5]dec-2-en-8-yl)ethyl)-1H-indol-7-yl)benzenesulfonic acid amide]
 | 96% | COc1cc(C)c(S(=O)(=O)Nc2cccc3ccn(CC(=O)N4CCC5(CCN(c6ccncc6)CC5)C4)c23)c(C)c1 [Compound G-14, 4-Methoxy-2,6-dimethyl-N-(1-(2-oxo-2-(8-(pyridin-4-yl)-2,8-diazaspiro[4.5]decan-2-yl)ethyl)-1H-indol-7-yl)benzenesulfonic acid amide]
 | 54% | O=C(Cn1ccc2ccc(N3Cc4cccc(Cl)c4C3=O)cc21)N1CCC2(CC1)CC(c1ccncc1)=NO2 [Compound G-15, 7-Chloro-2-(1-(2-oxo-2-(3-(pyridin-4-yl)-1-oxa-2,8-diazaspiro[4.5]dec-2-en-8-yl)ethyl)-1H-indol-6-yl)isoindolin-1-one]
 | 96% | COc1cc(C)c(S(=O)(=O)Nc2cccc3ccn(CC(=O)N4CCC(N5CCc6cc(CN7CCCCC7)ccc6C5)C4)c23)c(C)c1 (stereo not shown) [Compound G-16, 4-Methoxy-2,6-dimethyl-N-(1-(2-oxo-2-(3-(6-(piperidin-1-ylmethyl)-3,4-dihydroisoquinolin-2(1H)-yl)pyrrolidin-1-yl)ethyl)-1H-indol-7-yl)benzenesulfonic acid amide]
 | 95% | COc1cc(C)c(S(=O)(=O)Nc2cccc3ccn(CC(=O)N4CCC5(CCN(c6ccncc6)C5)C4)c23)c(C)c1 (stereo not shown) [Compound G-17, 4-Methoxy-2,6-dimethyl-N-(1-(2-oxo-2-(7-(pyridin-4-yl)-2,7-diazaspiro[4.4]nonan-2-yl)ethyl)-1H-indol-7-yl)benzenesulfonic acid amide]
 | 99% | COc1cc(C)c(S(=O)(=O)Nc2cccc3ccn(CC(=O)N4CCC5(CCC(N6CCC6)CC5)CC4)c23)c(C)c1 [Compound G-18, N-(1-(2-(9-(azetidin-1-yl)-3-azaspiro[5.5]undecan-3-yl)-2-oxoethyl)-1H-indol-7-yl)-4-methoxy-2,6-dimethylbenzenesulfonic acid amide]
 | 94% | O=C(Cn1ccc2ccc(N3Cc4cccc(Cl)c4C3=O)cc21)N1CCC2(CCC(Oc3ccncc3)CC2)CC1 [Compound G-19, 7-Chloro-2-(1-(2-oxo-2-(9-(pyridin-4-yloxy)-3-azaspiro[5.5]undecan-3-yl)ethyl)-1H-indol-6-yl)isoindolin-1-one]
 | 13% | O=C(Cn1ccc2ccc(N3Cc4cccc(Cl)c4C3=O)cc21)N1CCC2(CCC(N3CC(F)(F)C3)CC2)CC1 [Compound G-20, 7-Chloro-2-(1-(2-(9-(3,3-difluoroazetidin-1-yl)-3-azaspiro[5.5]undecan-3-yl)-2-oxoethyl)-1H-indol-6-yl)isoindolin-1-one]
 | 43% | O=C(Cn1ccc2ccc(N3Cc4cccc(Cl)c4C3=O)cc21)N1CCC2(CCC(N3CCC3)CC2)CC1 [Compound G-21, 2-(1-(2-(9-(Azetidin-1-yl)-3-azaspiro[5.5]undecan-3-yl)-2-oxoethyl)-1H-indol-6-yl)-7-chloroisoindolin-1-one]
 | 99% | COc1cc(C)c(S(=O)(=O)Nc2cccc3ccn(CC(=O)N4CCC5(CCC(Oc6ccncc6)CC5)CC4)c23)c(C)c1 [Compound G-22, 4-Methoxy-2,6-dimethyl-N-(1-(2-oxo-2-(9-(pyridin-4-yloxy)-3-azaspiro[5.5]undecan-3-yl)ethyl)-1H-indol-7-yl)benzenesulfonic acid amide]
 | 106% | Cn1c2c(c3c(Cl)cccc31)C(=O)N(c1ccc3ccn(CC(=O)N4CCC5(CC4)CCN(c4ccncc4)CC5)c3c1)C2 [Compound G-23, 8-Chloro-4-methyl-2-[1-[2-oxo-2-(9-pyridin-4-yl-3,9-diazaspiro[5.5]undecan-3-yl)-ethyl]-1H-indol-6-yl]-3,4-dihydro-2H-pyrrolo[3,4-b]indol-1-one]
 | 103% | COc1cc(C)c(S(=O)(=O)NCc2cccc3ccn(CC(=O)N4CCC5(CC4)CCN(c4ccncc4)CC5)c23)c(C)c1 [Compound G-24, 4-Methoxy-2,6-dimethyl-N-[[1-[2-oxo-2-(9-pyridin-4-yl-3,9-diazaspiro[5.5]undecan-3-yl)-ethyl]-1H-indol-7-yl]-methyl]-benzenesulfonic acid amide]
 | 102% | Cc1cccc2c1C(=O)N(c1ccc3ccn(CC(=O)N4CCC5(CC4)CCN(c4ccncc4)CC5)c3c1)C2 [Compound G-26, 7-Methyl-2-[1-[2-oxo-2-(9-pyridin-4-yl-3,9-diazaspiro[5.5]undecan-3-yl)-ethyl]-1H-indol-6-yl]-2,3-dihydro-isoindol-1-one]
 | 99% | Cc1ccc2n1C(=O)N(c1ccc3ccn(CC(=O)N4CCC5(CC4)CCN(c4ccncc4)CC5)c3c1)C2 [Compound G-27, 5-Methyl-2-[1-[2-oxo-2-(9-pyridin-4-yl-3,9-diazaspiro[5.5]undecan-3-yl)-ethyl]-1H-indol-6-yl]-1,2-dihydro-pyrrolo[2,1-e]imidazol-3-one]
 | 54% | O=C(Cn1ccc2ccc(N3CCn4c(c(Cl)c5ccccc54)C3=O)cc21)N1CCC2(CC1)CCN(c1ccncc1)CC2 [Compound G-31, 10-Chloro-2-[1-[2-oxo-2-(9-pyridin-4-yl-3,9-diazaspiro[5.5]undecan-3-yl)-ethyl]-1H-indol-6-yl]-3,4-dihydro-2H-pyrazino[1,2-a]indol-1-one]
